Reference: ChEMBL document CHEMBL1201862, “PubChem BioAssay data set” (2004)
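Interpolation was linear, between the two tested concentrations surrounding the appropriate level; five concentrations were tested over 48 hours in 96-well plates. GI50 = concentration required for 50% inhibition of growth.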 The source made the active and inactive calls. Cut-off read from the data, not from the text of the source: active = GI50 up to about 1.1 µM and inactive = higher.

Experiments:
Test in all cases: DTP human tumour cell line panel, 48 h
UACC-62 = test system: UACC-62
SR = test system: SR
HOP-62 = test system: HOP-62
HT-29 = test system: HT-29
OVCAR-8 = test system: OVCAR-8
Malme-3M = test system: Malme-3M
SK-MEL-28 = test system: SK-MEL-28
SNB-19 = test system: SNB-19
OVCAR-5 = test system: OVCAR-5
OVCAR-4 = test system: OVCAR-4
EKVX = test system: EKVX
SF-295 = test system: SF-295
HCT-116 = test system: HCT-116
NCI-H23 = test system: NCI-H23
NCI-H460 = test system: NCI-H460
DU-145 = test system: DU-145
HOP-92 = test system: HOP-92
NCI-H226 = test system: NCI-H226
CCRF-CEM = test system: CCRF-CEM

Measured: GI50

N#C/C(=C\Nc1ccccn1)C(=O)c1ccco1
inactive: UACC-62 > 100 µM | SR > 100 µM | HOP-62 > 100 µM | HT-29 > 100 µM | OVCAR-8 > 100 µM | Malme-3M > 100 µM | SK-MEL-28 > 100 µM | SNB-19 > 100 µM | OVCAR-5 > 100 µM | OVCAR-4 > 100 µM | EKVX > 100 µM | SF-295 > 100 µM | HCT-116 > 100 µM | NCI-H23 > 100 µM | NCI-H460 > 100 µM | DU-145 > 100 µM | HOP-92 > 100 µM | NCI-H226 > 100 µM

COc1cc(S(=O)(=O)Nc2ccc(-c3csc(N)n3)cc2)ccc1Cl
inactive: UACC-62 15.2 µM | SR 21.9 µM | HT-29 20.7 µM | OVCAR-8 22.3 µM | Malme-3M 16.6 µM | SK-MEL-28 21.3 µM | SNB-19 19.5 µM | OVCAR-5 23.3 µM | OVCAR-4 14.1 µM | EKVX 16.6 µM | CCRF-CEM 15.5 µM | HCT-116 16.2 µM | NCI-H23 21.2 µM | DU-145 18 µM | HOP-92 22.6 µM | NCI-H226 26.4 µM

O=C(O)C(Br)C(Br)c1ccccc1[N+](=O)[O-] (stereo not drawn)
inactive: UACC-62 > 100 µM | SR > 100 µM | HOP-62 96.2 µM | HT-29 > 100 µM | OVCAR-8 > 100 µM | Malme-3M > 100 µM | SK-MEL-28 > 100 µM | SNB-19 > 100 µM | OVCAR-5 > 100 µM | OVCAR-4 > 100 µM | EKVX > 100 µM | SF-295 > 100 µM | HCT-116 > 100 µM | NCI-H23 > 100 µM | NCI-H460 > 100 µM | DU-145 > 100 µM | HOP-92 > 100 µM | NCI-H226 > 100 µM

O=C(c1ccccn1)C1(N2CCCCC2)CCCCC1
inactive: UACC-62 > 100 µM | SR > 100 µM | HOP-62 > 100 µM | HT-29 78 µM | OVCAR-8 > 100 µM | SK-MEL-28 > 100 µM | SNB-19 > 100 µM | OVCAR-5 > 100 µM | OVCAR-4 > 100 µM | EKVX > 100 µM | SF-295 > 100 µM | CCRF-CEM > 100 µM | HCT-116 > 100 µM | NCI-H23 91.6 µM | DU-145 > 100 µM | HOP-92 9.75 µM | NCI-H226 > 100 µM

O=c1c2c3c(sc2nc(S)n1-c1ccccc1)CCCc1ccc([N+](=O)[O-])cc1-3
inactive: UACC-62 26.7 µM | SR 27.4 µM | HOP-62 35.1 µM | HT-29 25.3 µM | OVCAR-8 28.8 µM | Malme-3M 35.7 µM | SK-MEL-28 > 100 µM | SNB-19 40.8 µM | OVCAR-5 > 100 µM | OVCAR-4 38.9 µM | EKVX > 100 µM | SF-295 30.4 µM | HCT-116 39.1 µM | NCI-H23 30.5 µM | NCI-H460 36 µM | DU-145 48.9 µM | HOP-92 20.6 µM | NCI-H226 > 100 µM

N#CCCC1(CCC#N)CCCCCCC(CCC#N)(CCC#N)C(O)C1O (stereo not drawn)
inactive: SR 65.3 µM | HOP-62 > 100 µM | HT-29 > 100 µM | OVCAR-8 > 100 µM | Malme-3M > 100 µM | SK-MEL-28 > 100 µM | SNB-19 > 100 µM | OVCAR-5 > 100 µM | OVCAR-4 > 100 µM | SF-295 > 100 µM | HCT-116 > 100 µM | NCI-H23 > 100 µM | NCI-H460 > 100 µM | DU-145 > 100 µM | HOP-92 > 100 µM | NCI-H226 53.8 µM

C[C@@]1(O)C2C3CC4C5C3C1[C@](O)(C42)[C@H]5Br (stereo partly drawn)
inactive: UACC-62 > 100 µM | SR > 100 µM | HOP-62 > 100 µM | HT-29 > 100 µM | OVCAR-8 > 100 µM | SK-MEL-28 > 100 µM | SNB-19 > 100 µM | OVCAR-5 > 100 µM | OVCAR-4 > 100 µM | EKVX > 100 µM | SF-295 > 100 µM | CCRF-CEM > 100 µM | HCT-116 > 100 µM | NCI-H23 > 100 µM | NCI-H460 > 100 µM | DU-145 > 100 µM | HOP-92 > 100 µM

O=C1OCC2(CO1)CC1C=CC2C1 (stereo not drawn)
inactive: UACC-62 > 100 µM | SR > 100 µM | HOP-62 > 100 µM | HT-29 > 100 µM | Malme-3M > 100 µM | SK-MEL-28 > 100 µM | SNB-19 > 100 µM | OVCAR-5 > 100 µM | OVCAR-4 > 100 µM | EKVX > 100 µM | SF-295 > 100 µM | HCT-116 > 100 µM | NCI-H23 > 100 µM | NCI-H460 > 100 µM | DU-145 > 100 µM | HOP-92 > 100 µM | NCI-H226 > 100 µM

COc1ccc(C(OCC2OC(n3cc(C)c(=O)[nH]c3=O)CC2n2cc(Cn3cc(Cl)c(=O)[nH]c3=O)nn2)(c2ccccc2)c2ccccc2)cc1 (stereo not drawn)
inactive: UACC-62 38 µM | SR 4.02 µM | HOP-62 > 100 µM | HT-29 > 100 µM | OVCAR-8 > 100 µM | Malme-3M > 100 µM | SK-MEL-28 87.5 µM | SNB-19 > 100 µM | OVCAR-5 > 100 µM | OVCAR-4 > 100 µM | EKVX > 100 µM | SF-295 > 100 µM | CCRF-CEM 2.95 µM | HCT-116 33.9 µM | NCI-H23 > 100 µM | DU-145 > 100 µM | HOP-92 28.8 µM | NCI-H226 > 100 µM

CCOC(=O)C(=O)N1C(C)=C(C(=O)OCC)CC(C(=O)OCC)=C1C
inactive: UACC-62 > 100 µM | SR > 100 µM | HOP-62 > 100 µM | Malme-3M > 100 µM | SK-MEL-28 > 100 µM | SNB-19 > 100 µM | OVCAR-5 > 100 µM | OVCAR-4 > 100 µM | EKVX > 100 µM | SF-295 > 100 µM | CCRF-CEM > 100 µM | HCT-116 > 100 µM | NCI-H23 > 100 µM | NCI-H460 > 100 µM | DU-145 > 100 µM | HOP-92 > 100 µM

CCOC(=O)CCC(NC(=O)c1ccc(Oc2nc3ccccc3nc2C(=O)OCC)cc1)C(=O)OCC (stereo not drawn)
inactive: UACC-62 > 100 µM | SR > 100 µM | HOP-62 63 µM | HT-29 > 100 µM | OVCAR-8 41.2 µM | SK-MEL-28 > 100 µM | SNB-19 85.5 µM | OVCAR-5 > 100 µM | OVCAR-4 > 100 µM | EKVX > 100 µM | SF-295 > 100 µM | CCRF-CEM > 100 µM | HCT-116 72.3 µM | NCI-H23 > 100 µM | NCI-H460 > 100 µM | DU-145 > 100 µM | HOP-92 > 100 µM
